Experimental data reported in US5508180A, “Biocatalytic oxidation using soybean peroxidase” (Enzymol International, Inc., priority 1994, dated 1996).

Legend:
Format in all cases: biochemical
soybean peroxidase [1] = target: T1, soybean peroxidase (Glycine max, UniProt O22443); experiment: Oxidation of methyl p-tolyl sulfide to sulfoxide and sulfone by soybean peroxidase; details: for Absorbance Units at 308 nm: pH 2 (conversion to sulfone)
T1 construct: secreted heme glycoprotein, reported 37 kDa
T1 sequence (O22443 27-332): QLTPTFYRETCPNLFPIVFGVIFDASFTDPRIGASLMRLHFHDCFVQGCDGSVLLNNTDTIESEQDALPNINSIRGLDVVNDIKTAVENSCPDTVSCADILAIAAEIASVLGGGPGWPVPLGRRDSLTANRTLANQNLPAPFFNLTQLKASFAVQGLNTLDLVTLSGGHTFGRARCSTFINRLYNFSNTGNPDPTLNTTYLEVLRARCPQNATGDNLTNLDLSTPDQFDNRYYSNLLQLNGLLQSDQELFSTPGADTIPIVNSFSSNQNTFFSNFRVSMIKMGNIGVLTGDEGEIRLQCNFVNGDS
Experimental: Methyl p-tolyl sulfide (MTS), and the enantiomeric oxidation products (R)-(+)-methyl tolyl sulfoxide (MTSO) and (S)-(-)-methyl tolyl sulfoxide, were purchased from Aldrich (Milwaukee, Wis). A stock solution of MTS was prepared by adding 1 g MTS to 750 ml water and heating at 60° C. for 15 min. A warm stock solution was used for all assays to maintain the substrate in solution. […] At pH 2 these peaks shift to 274 and 311 nm, respectively.
Assays with MTS were done with 120 ppu SBP and 1 mM H2 O2.
The effect of pH on the oxidation of MTS was studied to optimize the reaction. Buffers were used at the indicated pH at 25 mM concentration.
The effect of temperature on aromatic sulfide oxidation was investigated at pH 3.5 using MTS. Conditions were 120 ppu SBP, 25 mM Glycine, 2 mM MTS, 1 mM H2 O2.

soybean peroxidase [2] = target: T1, soybean peroxidase; experiment: Chlorination of dimedone to 2-chlorodimedone catalyzed by soybean peroxidase; details: for Absorbance Units at 307 nm: pH 2, 120 ppu SBP, 1 mM H2O2, room temperature
Experimental: A stock solution (9.5 mM dimedone) was prepared by adding 1 g. 5,5-dimethyl-1,3-cyclohexane dione (dimedone) to […]. The solution was stirred to dissolve the dimedone and the pH adjusted to 2 with HCl. Chlorination of dimedone was catalyzed by soybean peroxidase (120 ppu) at pH 2 and 1 mM H2 O2. Increase in absorbance at 307 nm, corresponding to the absorbance maximum of 2-chlorodimedone was followed at room temperature and is shown in Table 9.
The effect of temperature on cholrination of dimedone was studied under these conditions. Reactions were performed as described above with increasing assay temperature.

soybean peroxidase [3] = target: T1, soybean peroxidase; experiment: Oxygen-mediated hydroxylation of tyrosine by soybean peroxidase with dihydroxyfumaric acid, loss of DHF absorbance
Experimental: Tyrosine, 0.2 g was added to 150 ml water and HCl was added until the tyrosine dissolved at about pH 3. Dihydroxyfumaric acid (DHF), 0.44 g was added to 100 ml water and dilute (1%) sodium hydroxide was added until the acid dissolved at about pH 3.
Hydroxylation of tyrosine was achieved by mixing 2 ml tyrosine solution, 1 ml 0.1M buffer selected from a range of pH 1-13, 0.1 ml soybean peroxidase at 10 mg/ml and last, adding 0.1 ml DHF stock solution. The reference curvette contained the same mixture of tyrosine, buffer and DHF stock solutions. No hydrogen peroxide was used in these reaction. Dissolved oxygen from air served as the source of oxidant. Peak wavelength corresponding to DHF, determined by DHF absorbance in the solution, was monitored for loss in absorbance, indicating consumption of the reducing agent and hydroxylation of the phenol. Oxidation was followed by monitoring wavelengths from 500 to 200 nm at zero time and 1 minute of reaction. The absorbance difference at the wavelength corresponding to loss of DHF was recorded.

soybean peroxidase [4] = target: T1, soybean peroxidase; experiment: Oxidation of veratryl alcohol to veratryl aldehyde by soybean peroxidase and hydrogen peroxide, absorbance at 308 nm
Experimental: Preparation of Soybean Peroxidase Solution: Purified soybean peroxidase was lyophilized to give a powder at 120 purpurogallin units (as defined by Sigma) per mg. Purification was done with addition of 5 mM CaCl2, but without buffers or other non-volatile substances which would carry over with the enzyme in the powder. Lyophilization typically yielded 4.5 g from 60 ml. […] Using the extinction coefficient reported for heme in HRP ([…] at 403 nm in 0.1M Tris pH 7), and the reported molecular weight of SBP (37,000), the solid was 60% peroxidase by weight.
Preparation of peroxide stock solution: 1.5 ml of 30% hydrogen peroxide was diluted to 100 ml with water to provide a 0,147M stock solution of hydrogen peroxide.
0.1 ml soybean peroxidase (120 purpurogallin units/ml) stock solution was added to 3 ml veratryl alcohol solution (1 g veratryl alcohol in 750 ml water) and vortexed in a test tube. 20 μl peroxide stock solution was added, mixed and the solution poured into a 1 cm path, 4 ml quartz cuvette. Using a Shimadzu UV-160 double beam recording spectophotometer, the change in absorbance of the sample compared to a reference cuvette containing 3 ml veratryl alcohol solution only was monitored every minute by scanning wavelengths from 500 to 200 nm. The peak wavelength of 308 nm was identified as veratryl aldehyde and was used for further monitoring. The kinetics of the reaction were determined from the linear portion of the increase in absorbance.
To determine the effects of pH on the oxidation of veratryl alcohol, a veratryl alcohol stock solution containing 20 mM CaCl2 was divided into 9 samples and each sample treated with HCl to provide 9 samples ranging in pH from 1.25 to 3.3 ml of solution was withdrawn from each sample and the change in absorbance (dA) of veratryl alcohol in each sample was measured at 308 nm at room temperature.
To determine the effects of temperature on veratryl alcohol oxidation at a pH of 2, 5 samples of a veratryl alcohol stock solution without CaCl2 were obtained and the absorbance of veratryl alcohol was measured at varying temperatures. The samples were incubated in a circulating water bath and cuvette blocks were preheated by connection with the same bath. The test cuvette was left empty in the block to equilibrate prior to assay. Enzyme and peroxide stock solutions were stored at room temperature. Assay was initiated by pouring the alcohol solution into the cuvette, adding 0.1 ml enzyme, inverting, adding 20 ul peroxide, inverting, and immediately starting to record change in absorbance.

## CSc1ccc(C)cc1 [MTS, Methyl p-tolyl sulfide]
Soybean peroxidase [1]
  pH optimum of oxidation of MTS to MTSO: 3.5
Soybean peroxidase [1]; 25 °C, pH 3.5, 120 ppu SBP, 25 mM Glycine, 2 mM MTS, 1 mM H2O2
  dA per min at 279 nm: 0.0607
Soybean peroxidase [1]; 35 °C, pH 3.5, 120 ppu SBP, 25 mM Glycine, 2 mM MTS, 1 mM H2O2
  dA per min at 279 nm: 0.0824
Soybean peroxidase [1]; 45 °C, pH 3.5, 120 ppu SBP, 25 mM Glycine, 2 mM MTS, 1 mM H2O2
  dA per min at 279 nm: 0.1012
Soybean peroxidase [1]; 55 °C, pH 3.5, 120 ppu SBP, 25 mM Glycine, 2 mM MTS, 1 mM H2O2
  dA per min at 279 nm: 0.1735
Soybean peroxidase [1]; 65 °C, pH 3.5, 120 ppu SBP, 25 mM Glycine, 2 mM MTS, 1 mM H2O2
  dA per min at 279 nm: 0.2563
Soybean peroxidase [1]; 75 °C, pH 3.5, 120 ppu SBP, 25 mM Glycine, 2 mM MTS, 1 mM H2O2
  dA per min at 279 nm: 0.1065
Soybean peroxidase [1]; 85 °C, pH 3.5, 120 ppu SBP, 25 mM Glycine, 2 mM MTS, 1 mM H2O2
  dA per min at 279 nm: 0.0908
Soybean peroxidase [1]; pH 1, 25 mM buffer
  dA per min at 279 nm: 0.0348
Soybean peroxidase [1]; pH 2, 25 mM buffer
  dA per min at 279 nm: -0.1376
Soybean peroxidase [1]; pH 3, 25 mM buffer
  dA per min at 279 nm: 0.1042
Soybean peroxidase [1]; pH 3.5, 25 mM buffer
  dA per min at 279 nm: 0.218
Soybean peroxidase [1]; pH 4, 25 mM buffer
  dA per min at 279 nm: 0.0893
Soybean peroxidase [1]; pH 4.5, 25 mM buffer
  dA per min at 279 nm: 0.0017
Soybean peroxidase [1]; time of reaction 0 min
  Absorbance Units at 308 nm: 0.21 Absorbance Units
Soybean peroxidase [1]; time of reaction 1 min
  Absorbance Units at 308 nm: 0.293 Absorbance Units
Soybean peroxidase [1]; time of reaction 2 min
  Absorbance Units at 308 nm: 0.35 Absorbance Units
Soybean peroxidase [1]; time of reaction 3 min
  Absorbance Units at 308 nm: 0.381 Absorbance Units
Soybean peroxidase [1]; time of reaction 4 min
  Absorbance Units at 308 nm: 0.401 Absorbance Units

## CC1(C)CC(=O)CC(=O)C1 [dimedone, 5,5-dimethyl-1,3-cyclohexane dione]
Soybean peroxidase [2]; 25 °C, pH 2
  dA per min at 307 nm: 0.1066
Soybean peroxidase [2]; 35 °C, pH 2
  dA per min at 307 nm: 0.1204
Soybean peroxidase [2]; 45 °C, pH 2
  dA per min at 307 nm: 0.1962
Soybean peroxidase [2]; 55 °C, pH 2
  dA per min at 307 nm: 0.1792
Soybean peroxidase [2]; 65 °C, pH 2
  dA per min at 307 nm: 0.0155
Soybean peroxidase [2]; 75 °C, pH 2
  dA per min at 307 nm: 0.0181
Soybean peroxidase [2]; pH 2
  optimal temperature of oxidative chlorination: about 45 °C
Soybean peroxidase [2]; time of reaction 0 min
  Absorbance Units at 307 nm: 0.175 Absorbance Units
Soybean peroxidase [2]; time of reaction 1 min
  Absorbance Units at 307 nm: 0.275 Absorbance Units
Soybean peroxidase [2]; time of reaction 2 min
  Absorbance Units at 307 nm: 0.510 Absorbance Units
Soybean peroxidase [2]; time of reaction 3 min
  Absorbance Units at 307 nm: 0.800 Absorbance Units
Soybean peroxidase [2]; time of reaction 7 min
  Absorbance Units at 307 nm: 0.868 Absorbance Units

## N[C@@H](Cc1ccc(O)cc1)C(=O)O [tyrosine, Tyrosine]
Soybean peroxidase [3]; pH 1, λ 310 nm, loss of DHF absorbance
  dA per min: 0
Soybean peroxidase [3]; pH 2, λ 315 nm, loss of DHF absorbance
  dA per min: 0.012
Soybean peroxidase [3]; pH 3, λ 321 nm, loss of DHF absorbance
  dA per min: 0.726
Soybean peroxidase [3]; pH 3.5, λ 318 nm, loss of DHF absorbance
  dA per min: 0.886
Soybean peroxidase [3]; pH 4, λ 319 nm, loss of DHF absorbance
  dA per min: 0.065
Soybean peroxidase [3]; pH 4.5, λ 320 nm, loss of DHF absorbance
  dA per min: 0.391
Soybean peroxidase [3]; pH 5, λ 303 nm, loss of DHF absorbance
  dA per min: 1.897
Soybean peroxidase [3]; pH 5.5, λ 302 nm, loss of DHF absorbance
  dA per min: 0.971
Soybean peroxidase [3]; pH 6, λ 302 nm, loss of DHF absorbance
  dA per min: 2.226
Soybean peroxidase [3]; pH 6.5, λ 302 nm, loss of DHF absorbance
  dA per min: 2.134
Soybean peroxidase [3]; pH 7, interference from Tris buffer
  dA per min: 0
Soybean peroxidase [3]; pH 7.5, interference from Tris buffer
  dA per min: 0
Soybean peroxidase [3]; pH 8, interference from Tris buffer
  dA per min: 0
Soybean peroxidase [3]; pH 8.5, λ 305 nm, loss of DHF absorbance
  dA per min: 1.098
Soybean peroxidase [3]; pH 9, λ 304 nm, loss of DHF absorbance
  dA per min: 1.705
Soybean peroxidase [3]; pH 9.5, λ 302 nm, loss of DHF absorbance
  dA per min: 1.66
Soybean peroxidase [3]; pH 10, λ 302 nm, loss of DHF absorbance
  dA per min: 0.768
Soybean peroxidase [3]; pH 10.5, λ 302 nm, loss of DHF absorbance
  dA per min: 1.372
Soybean peroxidase [3]; pH 11, λ 302 nm, loss of DHF absorbance
  dA per min: 1.988
Soybean peroxidase [3]; pH 11.5, λ 305 nm, loss of DHF absorbance
  dA per min: 0.075
Soybean peroxidase [3]; pH 12, λ 305 nm, loss of DHF absorbance
  dA per min: 0.069
Soybean peroxidase [3]; pH 13, λ 305 nm, loss of DHF absorbance
  dA per min: 0

## COc1ccc(CO)cc1OC [veratryl alcohol, 3,4-dimethoxybenzyl alcohol]
Soybean peroxidase [4]; 0.1M KCl/HCl buffer at pH 2
  activity (dA per minute at 308 nm): 0.2265
Soybean peroxidase [4]; 25 °C, pH 2, without CaCl2
  dA per minute at 308 nm: 1.427
Soybean peroxidase [4]; 35 °C, pH 2, without CaCl2
  dA per minute at 308 nm: 2.358
Soybean peroxidase [4]; 45 °C, pH 2, without CaCl2
  dA per minute at 308 nm: 3.17
Soybean peroxidase [4]; 55 °C, pH 2, without CaCl2
  dA per minute at 308 nm: 0.3467
Soybean peroxidase [4]; 65 °C, pH 2, without CaCl2
  dA per minute at 308 nm: 0.0018
Soybean peroxidase [4]; pH 1.25, 20 mM CaCl2, room temperature
  dA per minute at 308 nm: 0.0045
Soybean peroxidase [4]; pH 1.35, 20 mM CaCl2, room temperature
  dA per minute at 308 nm: 0.0361
Soybean peroxidase [4]; pH 1.65, 20 mM CaCl2, room temperature
  dA per minute at 308 nm: 0.2358
Soybean peroxidase [4]; pH 1.85, 20 mM CaCl2, room temperature
  dA per minute at 308 nm: 1.611
Soybean peroxidase [4]; pH 2.15, 20 mM CaCl2, room temperature
  dA per minute at 308 nm: 0.945
Soybean peroxidase [4]; pH 2.35, 20 mM CaCl2, room temperature
  dA per minute at 308 nm: 0.2243
Soybean peroxidase [4]; pH 2.55, 20 mM CaCl2, room temperature
  dA per minute at 308 nm: 0.1093
Soybean peroxidase [4]; pH 2.85, 20 mM CaCl2, room temperature
  dA per minute at 308 nm: 0.0587
Soybean peroxidase [4]; pH 3, 20 mM CaCl2, room temperature
  dA per minute at 308 nm: 0.0119
Soybean peroxidase [4]; veratryl alcohol oxidation
  pH optimum: around 2
